This is an account of results in patent publication US9969732B2, “Tetrahydroisoquinoline estrogen receptor modulators and uses thereof” (Genentech, Inc., priority 2016, dated 2018).

This test addresses T1, ER-alpha (WT) (Homo sapiens, UniProt P03372).
T1 construct: endogenous in cells; host or cells: MCF7 breast cancer cells
T1 sequence (P03372 1-595): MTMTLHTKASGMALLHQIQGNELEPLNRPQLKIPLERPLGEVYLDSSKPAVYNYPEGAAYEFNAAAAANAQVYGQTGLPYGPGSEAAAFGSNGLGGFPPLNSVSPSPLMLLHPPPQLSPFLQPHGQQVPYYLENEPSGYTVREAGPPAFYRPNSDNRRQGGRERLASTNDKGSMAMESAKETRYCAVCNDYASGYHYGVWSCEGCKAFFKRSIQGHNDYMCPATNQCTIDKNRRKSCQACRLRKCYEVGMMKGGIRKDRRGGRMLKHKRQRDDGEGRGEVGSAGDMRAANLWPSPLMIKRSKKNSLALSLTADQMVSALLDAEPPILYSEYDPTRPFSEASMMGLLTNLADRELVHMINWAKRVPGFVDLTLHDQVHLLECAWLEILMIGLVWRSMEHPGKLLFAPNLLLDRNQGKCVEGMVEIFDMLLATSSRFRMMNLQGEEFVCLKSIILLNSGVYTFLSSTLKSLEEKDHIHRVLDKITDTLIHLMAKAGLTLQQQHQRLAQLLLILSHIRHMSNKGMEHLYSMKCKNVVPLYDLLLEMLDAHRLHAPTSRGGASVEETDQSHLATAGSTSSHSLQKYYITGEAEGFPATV
Description: Breast Cancer Cell ERa High Content Fluorescence Imaging Degradation Assay (MCF7 HCS). The test is classed as cell-based. The following applies: MCF7 breast cancer cells, 4 hours incubation; for ERalpha (WT) MCF7 HCS (S inf): plateau of the maximal effect, DMSO and Fulvestrant define 0% and 100% changes in ESR1; for EC50: inflexion point of curve. The method, then: MCF7 breast cancer cells were seeded on day 1 at a density of 10,000 cells per well in 384 well poly-lysine coated tissue culture plate (Greiner #T-3101-4), in 50 μL/well RPMI (phenol red free), 10% FBS (Charcoal stripped), containing L-glutamine. […] Compounds and controls were dispensed using a Labcyte Echo acoustic dispenser to dispense compounds with a predefined serial dilution (1.8×, 10 point, in duplicate) and appropriate backfill and control compounds (final total volume transferred was 417.5 nL and compound dispense volume ranges from 2.5 nL to 417.5 nL; 0.84% DMSO (v/v) final), ultimately producing a concentration range from 0.05 nM to 835 nM. Cell plates were incubated at 37° C., for 4 hours. Fixation and permeabilization were carried out using a Biotek EL406 plate washer and dispenser as follows. Cells were fixed by addition of 15 μL of 16% paraformaldehyde (Electron Microscopy Sciences #15710-S) directly to the 50 μL cell culture medium in each well using the peristaltic pump 5 μL cassette on a Biotek EL406 (final concentration of formaldehyde was 3.7% w/v). Samples were incubated 30 minutes. Well contents was aspirated and 50 μL/well of Phosphate Buffered Saline (PBS) containing 0.5% w/v bovine serum albumen, 0.5% v/v Triton X-100 (Antibody Dilution Buffer) was added to each well. Samples were incubated for 30 minutes. Well contents were aspirated and washed 3 times with 100 μL/well of PBS. Immunofluorescence staining of estrogen receptor alpha (ESR1) was carried out using a Biotek EL406 plate washer and dispenser as follows. The well supernatant was aspirated from the wells and 25 μL/well of anti-ESR1 mAb (F10) (Santa Cruz sc-8002) diluted 1:1000 in Antibody Dilution Buffer was dispensed. Samples were incubated for 2 hours at room temperature. Samples were washed 4 times with 100 μL/well of PBS. 25 μL (microliters)/well of secondary antibody solution (Alexafluor® 488 conjugate anti-mouse IgG (LifeTechnologies #A21202) diluted 1:1000 and Hoechst 33342 1 μg/mL diluted in Antibody Dilution Buffer) were dispensed into each well. Samples were incubated for 2 hours at room temperature. Samples were washed 3 times with 100 μL/well of PBS using a Biotek EL406. Quantitative fluorescence imaging of ESR1 was carried out using a Cellomics Arrayscan V® (Thermo). Fluorescence images of the samples (Channel 1: XF53 Hoechst (DNA stain); Channel 2: XF53 FITC (ESR1 stain)) were acquired using a Cellomics VTI Arrayscan using the Bioapplication “Compartmental Analysis” using the auto-exposure (based on DMSO control wells) setting “peak target percentile” set to 25% target saturation for both channels. Channel 1 (DNA stain) was used to define the nuclear region (Circ). Measurements of “Mean_CircAvgIntCh2”, which is the Alexafluor 488 fluorescence intensity (ESR1) within the nuclear region, was measured on a per cell basis and averaged over all the measured cells. Data analysis was carried out using Genedata Screener Software, with DMSO and 5 nM Fulvestrant treated samples being used to define the 0% and 100% changes in ESR1. The “Robust Fit” method was used to define the inflexion point of curve (EC50) and the plateau of the maximal effect (Sinf).

A value given as a limit tells only on which side of the number the result lay.

In the case of `Oc1ccc2c(c1)CC[C@H](c1ccccc1)[C@@H]2c1ccc(OCCN2CCCC2)cc1` [lasofoxifene, (5R,6S)-6-phenyl-5-(4-(2-(pyrrolidin-1-yl)ethoxy)phenyl)-5,6,7,8-tetrahydronaphthalen-2-ol, reference compound], the “ERalpha (WT) MCF7 HCS (S inf)” value is listed as −73.5%.

A word on the EC50: it is the concentration giving half of the maximal effect. A high value points to lower potency in that assay. As to `NC(=O)c1ccc2c(c1)CCN(CC(F)(F)F)[C@@H]2c1ccc(OCCN2CC(CF)C2)cc1` [Example 142, (1R)-1-[4-[2-[3-(fluoromethyl)azetidin-1-yl]ethoxy]phenyl]-2-(2,2,2-trifluoroethyl)-3,4-dihydro-1H-isoquinoline-6-carboxamide], it took 29 nM to reach a half-maximal effect (EC50) and the “ERalpha (WT) MCF7 HCS (S inf)” value is −79%.

In the case of `C[C@@H]1Cc2c(ccc3[nH]ncc23)[C@@H](c2c(F)cc(OCCN3CC(CF)C3)cc2F)N1CC(C)(C)F` (single isomer, unassigned) [Example 123], it took 0.06 nM to reach a half-maximal effect (EC50) and the “ERalpha (WT) MCF7 HCS (S inf)” value is recorded as −98.8%.

For `Oc1ccc2c(c1)CCCN(CC(F)(F)F)[C@@H]2c1ccc(OCCN2CC(CF)C2)cc1` (single isomer, unassigned) [Example 140], the EC50 was 0.05 nM and the “ERalpha (WT) MCF7 HCS (S inf)” value is listed as −96.6%.

In the case of `Oc1ccc2c(c1)CCN(c1ccccc1)C2c1ccc(OC2CN(CCCF)C2)cc1` (stereo not shown) [Example 102, 1-[4-[1-(3-fluoropropyl)azetidin-3-yl]oxyphenyl]-2-phenyl-3,4-dihydro-1H-isoquinolin-6-ol], a half-maximal effect (EC50) was put at 0.87 nM and the “ERalpha (WT) MCF7 HCS (S inf)” value is −98%.

For `C[C@H]1Cc2cc(O)ccc2[C@@H](c2ccc(OCCN3CC(CF)C3)cc2)N1S(C)(=O)=O` [Example 115, (1R,3S)-1-[4-[2-[3-(fluoromethyl)azetidin-1-yl]ethoxy]phenyl]-3-methyl-2-methylsulfonyl-3,4-dihydro-1H-isoquinolin-6-ol], a half-maximal response (EC50) required 61.4 nM and the “ERalpha (WT) MCF7 HCS (S inf)” value is recorded as −53%.

As for `CC(C)(F)C(=O)N1CCc2cc(O)ccc2[C@H]1c1ccc(OCCN2CC(CF)C2)cc1` (single isomer, unassigned) [Example 104], a half-maximal response (EC50) required 0.741 nM and the “ERalpha (WT) MCF7 HCS (S inf)” value is −90%.

With `CC(=O)c1ccc2c(c1)C[C@@H](C)N(CC(F)(F)CO)[C@@H]2c1ccc(OCCN2CC(CF)C2)cc1` (single isomer, unassigned) [Example 175], a half-maximal response (EC50) required 0.168 nM and the “ERalpha (WT) MCF7 HCS (S inf)” value is on record as −97%.

On to `C[C@H]1Cc2cccc(O)c2[C@H](c2ccc(OCCN3CC(CF)C3)cc2)N1CC(F)(F)CO` (single isomer, unassigned) [Example 168], for which the EC50 worked out at 510 nM.

For `CC1(C)Cc2cc(O)ccc2C(c2ccc(OCCN3CC(CF)C3)cc2)N1CC(F)(F)F` (single isomer, unassigned) [Example 158], the EC50 was found to be 0.042 nM and the “ERalpha (WT) MCF7 HCS (S inf)” value was −96%.

`C[C@@H]1Cc2cccc(O)c2[C@@H](c2ccc(OCCN3CC(CF)C3)cc2)N1CC(F)(F)CO` (single isomer, unassigned) [Example 167]: the EC50 was determined as 22 nM and the “ERalpha (WT) MCF7 HCS (S inf)” value is reported as −82%.

Turning to `CC(C)(F)CN1CCc2cc(O)ccc2[C@]1(c1ccc(OCCN2CC(CF)C2)cc1)C(F)F` (single isomer, unassigned) [Example 128], the EC50 came to 0.075 nM and the “ERalpha (WT) MCF7 HCS (S inf)” value is reported as −95%.

With `CC(C)(F)C(=O)N1CCc2cc(O)ccc2[C@@H]1c1ccc(OCCN2CC(CF)C2)cc1` (single isomer, unassigned) [Example 103], the midpoint of the response, the EC50, lay at 100 nM.

Turning to `C[C@@H]1Cc2cc(O)ccc2[C@H](c2ccc(OCCN3CC(CF)C3)cc2)N1S(C)(=O)=O` [Example 114, (1S,3R)-1-[4-[2-[3-(fluoromethyl)azetidin-1-yl]ethoxy]phenyl]-3-methyl-2-methylsulfonyl-3,4-dihydro-1H-isoquinolin-6-ol], the EC50 was at least 100 nM.

The compound `NC(=O)c1ccc2c(c1)CCN(CC(F)(F)F)[C@H]2c1ccc(OCCN2CC(CF)C2)cc1` [Example 141, (1S)-1-[4-[2-[3-(fluoromethyl)azetidin-1-yl]ethoxy]phenyl]-2-(2,2,2-trifluoroethyl)-3,4-dihydro-1H-isoquinoline-6-carboxamide] returned an EC50 of at least 100 nM.

Regarding `C[C@@H]1Cc2cc(S(N)(=O)=O)ccc2[C@@H](c2ccc(OCCN3CC(CF)C3)cc2)N1CC(F)(F)CO` (single isomer, unassigned) [Example 173], it took 2.9 nM to reach a half-maximal effect (EC50) and the “ERalpha (WT) MCF7 HCS (S inf)” value is listed as −98%.

For the compound `FCC1CN(CCOc2ccc([C@@H]3c4ccc(N5CCOCC5)cc4CCN3CC(F)(F)F)cc2)C1` [Example 148, 4-[(1R)-1-[4-[2-[3-(fluoromethyl)azetidin-1-yl]ethoxy]phenyl]-2-(2,2,2-trifluoroethyl)-3,4-dihydro-1H-isoquinolin-6-yl]morpholine], the midpoint of the response, the EC50, lay at 12 nM and the “ERalpha (WT) MCF7 HCS (S inf)” value is −89%.

On to `C[C@H]1Cc2cc(C(=O)O)ccc2[C@H](c2ccc(OCCN3CC(CF)C3)cc2)N1CC(F)(F)F` (single isomer, unassigned) [Example 163], for which the EC50 was found to be 11 nM and the “ERalpha (WT) MCF7 HCS (S inf)” value is recorded as −92%.

`C[C@H]1Cc2cc(O)ccc2[C@H](c2ccc(OCCN3CC(CF)C3)cc2)N1S(C)(=O)=O` [Example 117, (1S,3S)-1-[4-[2-[3-(fluoromethyl)azetidin-1-yl]ethoxy]phenyl]-3-methyl-2-methylsulfonyl-3,4-dihydro-1H-isoquinolin-6-ol] came in with an EC50 of at least 100 nM.

Turning to `Oc1ccc2c(c1)CCCN(CC(F)(F)F)[C@H]2c1ccc(OCCN2CC(CF)C2)cc1` (single isomer, unassigned) [Example 139], the EC50 was determined as 0.101 nM and the “ERalpha (WT) MCF7 HCS (S inf)” value was −95.4%.

For the compound `Oc1ccc2c(c1)CCN(CC(F)(F)F)[C@@H]2c1ccc(OCCN2CC(CF)C2)cc1` (single isomer, unassigned) [Example 154], the response was half-maximal at 0.024 nM (EC50) and the “ERalpha (WT) MCF7 HCS (S inf)” value is listed as −99%.

Take `C[C@H](O)c1ccc2c(c1)C[C@@H](C)N(CC(F)(F)CO)[C@@H]2c1ccc(OCCN2CC(CF)C2)cc1` [Example 178, 2,2-Difluoro-3-((1R,3R)-1-(4-(2-(3-(Fluoromethyl)azetidin-1-yl)ethoxy)phenyl)-6-((S)-1-hydroxyethyl)-3-methyl-3,4-dihydroisoquinolin-2(1H)-yl)propan-1-ol]: the EC50 is above 100 nM.

Consider `C[C@H]1CN(S(C)(=O)=O)[C@H](c2ccc(OCCN3CC(CF)C3)cc2)c2ccc(O)cc21` [Example 121, (1R,4R)-1-[4-[2-[3-(fluoromethyl)azetidin-1-yl]ethoxy]phenyl]-4-methyl-2-methylsulfonyl-3,4-dihydro-1H-isoquinolin-6-ol], for which a half-maximal effect (EC50) was put at 18.1 nM and the “ERalpha (WT) MCF7 HCS (S inf)” value is −70%.

Compound `C[C@H]1Cc2cc(C(C)(C)O)ccc2[C@H](c2ccc(OCCN3CC(CF)C3)cc2)N1CC(F)(F)F` [Example 162, 2-((1S,3S)-1-(4-(2-(3-(Fluoromethyl)azetidin-1-yl)ethoxy)phenyl)-3-methyl-2-(2,2,2-trifluoroethyl)-1,2,3,4-tetrahydroisoquinolin-6-yl)propan-2-ol] returned an EC50 of 280 nM.
